Here are results for five compounds from publication PMC5524213 (Bioconjugate chemistry, 2015).

pKi: −log10 of the molar value.

Series [1] deals with HCT-116/δOR tumors. Type of series: in vivo, mice. The conditions noted are these: 10 nmol/kg i.v., 24 hours post-injection, n = 4, p ≤ 0.01.
The subject of series [2] is DMS-53 (δOR+) tumors. The series can be described thus: in vivo selectivity imaging, bilateral H1299 and DMS-53 xenografts, Optix-MX3. The arrangement: species or system mice. The conditions noted are these: 40 nmol/kg i.v., 24 hours post-injection, n = 4, p ≤ 0.01.
Series [3] relates to DMS-53 (δOR+) tumors. Type of series: in vivo, mice. Conditions: i.v. tail vein; 40, 80 and 160 nmol/kg compared.
A short description of series [4]: photobleaching in ambient light or in the dark. Conditions: 50 nM in PBS, n = 4. Type of series: physicochemical.
Series [5] has as its system HCT-116/δOR tumors. Type of series: in vivo, mice. Conditions: i.v. tail vein.
Series [6] can be described thus: absorbance and emission spectra. The conditions noted are these: for absorbance maximum: Tecan Infinite M-1000 PRO, 230–1000 nm; for absorbance maximum / emission maximum: step 2 nm; for emission maximum: bandwidth 5 nm; for Stokes-shift: conjugate versus free IR800CW. Type of series: physicochemical.
The subject of series [7] is H1299 cells. The series is described as follows: confocal fluorescence microscopy, H1299. It counts as cell-based.
Series [8] relates to DMS-53 cells. The series can be described thus: confocal fluorescence microscopy, DMS-53. It counts as cell-based.
The conditions of series [9]: ref not given, cited from earlier work; for emission maximum, free dye: reported value; for absorbance maximum, free dye: reported for the free dye.
The subject of the next series is HCT-116/δOR cells. The series can be described thus: semi-quantitative confocal microscopy, HCT-116/δOR cells. It counts as cell-based. Conditions: Dmt-Tic-Lys-Cy5 50 nM.
The next series concerns HCT-116/δOR tumor. Conditions: dose 4.5 nmol/kg; previous experiments; cited from earlier work.
The subject of the next series is HCT-116 cells. The series can be described thus: semi-quantitative confocal microscopy, parental HCT-116 cells. The conditions noted are these: Dmt-Tic-Lys-Cy5 50 nM. It counts as cell-based.
Series [10] relates to DMS-53 cells. The series is described as follows: semi-quantitative confocal microscopy, DMS-53 cells. It counts as cell-based. The conditions noted are these: Dmt-Tic-Lys-Cy5 50 nM.
For another series, the target named is δOR (Homo sapiens, UniProt P41143). Conditions: cited from earlier work.
Chain of δOR (P41143 1-357 limits assumed): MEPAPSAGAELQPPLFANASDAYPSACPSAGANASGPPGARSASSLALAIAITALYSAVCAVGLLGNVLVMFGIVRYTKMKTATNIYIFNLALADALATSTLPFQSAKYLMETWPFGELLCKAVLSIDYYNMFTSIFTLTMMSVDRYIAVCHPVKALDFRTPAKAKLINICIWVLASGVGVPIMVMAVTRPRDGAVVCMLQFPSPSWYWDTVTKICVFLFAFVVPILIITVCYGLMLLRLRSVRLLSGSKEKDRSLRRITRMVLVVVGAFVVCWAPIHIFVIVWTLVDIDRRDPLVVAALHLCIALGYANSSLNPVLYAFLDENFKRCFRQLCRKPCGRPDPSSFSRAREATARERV
The subject of series [11] is H1299 cells. The series is described as follows: semi-quantitative confocal microscopy, H1299 cells. Type of series: cell-based. Conditions: Dmt-Tic-Lys-Cy5 50 nM.
For series [12] the following is noted: cited from earlier work.
[13] abbreviates: naloxone 5 µM final pre-incubated 15 min, Dmt-Tic-Lys-Cy5 50 nM final.
[14] abbreviates: Dmt-Tic-Lys-Cy5 50 nM, 15 min, room temperature.

For `Cc1cc(O)cc(C)c1C[C@H](N)C(=O)N1Cc2ccccc2C[C@H]1C(=O)N[C@@H](CCCCNC(=O)CCSC1CC(=O)N(CCNC(=O)CCCCCN2C(=CC=C3CCCC(C=CC4=[N+](CCCCS(=O)(=O)[O-])c5ccc(S(=O)(=O)O)cc5C4(C)C)=C3Oc3ccc(S(=O)(=O)O)cc3)C(C)(C)c3cc(S(=O)(=O)O)ccc32)C1=O)C(=O)O` (stereo partly drawn) [Dmt-Tic-IR800], in the series on HCT-116/δOR tumors [1], the “average fluorescence signal, HCT-116/δOR versus HCT-116 tumors” value is reported as “significantly higher average fluorescence signal”. In addition, in the series with DMS-53 (δOR+) tumors [2], the “fold enhancement of positive tumor (DMS-53) relative to negative tumor (H1299)” value is listed as ~ 4 fold and the “normalized intensity, DMS-53 versus H1299” value is recorded as “significantly higher normalized intensity”. The same compound came in with an optimal dose in the series on DMS-53 (δOR+) tumors [3] of 40 nmol/kg. In series [4] (ICG filter set, except at ≥ 7 hours), the “significance of difference in percent initial fluorescence, light versus dark” value is on record as “not significantly different”. In [4] (ICG filter set, significant at ≥ 7 hours), the “difference in percent of the initial fluorescence intensity, light versus dark” value is listed as 6–13%. Further, the “tumor-to-background ratio, 20 versus 10 nmol/kg” value in the series with HCT-116/δOR tumors [5] (10 nmol/kg selected) is on record as “similar”. Further, in the series with HCT-116/δOR tumors [5] (20 and 10 nmol/kg versus 5 and 2.5 nmol/kg, all time points), the tumor-to-background ratio entry is “greatest tumor-to-background ratio”. For the same compound, the dye retention entry with HCT-116/δOR tumors [5] (IVIS-200) is listed as “retained for days”. The same compound gave an absorbance maximum in series [6] (100 µM in PBS) of 778 nm. The emission maximum in series [6] (1 mM in PBS, emission 450–850 nm) came out at 832 nm. The Stokes-shift in series [6] was found to be 54 nm.

For the compound `C=CCN1CC[C@]23c4c5ccc(O)c4O[C@H]2C(=O)CC[C@@]3(O)[C@H]1C5` [naloxone], the results for the “effect of naloxone on cell-surface labeling” value in the series with H1299 cells [7] (setting [13]) and in the series with DMS-53 cells [8] (setting [13]) were “unaffected” and “blocked”, respectively.

On to `CCN1/C(=C/C=C/C=C/C2=[N+](CCCCCC(=O)O)c3ccc(S(=O)(=O)O)cc3C2(C)C)C(C)(C)c2cc(S(=O)(=O)[O-])ccc21` [Cy5], for which, in [9], the “emission maximum, free dye” value is reported as 670 nm and the “absorbance maximum, free dye” value is listed as 649 nm.

As to Dmt-Tic-Lys-Cy5, the cell-surface labeling entry with H1299 cells [7] (setting [14]) is “little labeling was observed”; with HCT-116/δOR cells, “Cell-surface labeling was observed”; with DMS-53 cells [10] it was “Cell-surface labeling was observed”; in the series with DMS-53 cells [8] (setting [14]) it was “cell-surface labeling is observed”. For the same compound, the “tumor uptake and retention” value with HCT-116/δOR tumor is “selective uptake and retention”. Besides, the labeling entry with HCT-116 cells and with H1299 cells [11] was “No labeling was observed” in each case. Also, the photobleaching entry in series [4] (light versus dark, IVIS-200, Cy5 filter set) is given as “photobleaches”. The same compound returned an absorbance maximum in series [6] (100 µM in PBS) of 650 nm. Moreover, in [6] (100 µM in PBS, emission 280–850 nm), the emission maximum turned out to be 676 nm. Also, the “δOR affinity (in words)” value on δOR is recorded as “low nM affinity”. Also, at δOR (read-out: binding affinity for the δOR (Ki)), the pKi (usually −log10 of the Ki, conventionally taken in molar units) was 8.52.

Regarding `CC1(C)C(/C=C/C2=C(Oc3ccc(S(=O)(=O)O)cc3)C(=C/C=C3/N(CCCCS(=O)(=O)O)c4ccc(S(=O)(=O)[O-])cc4C3(C)C)/CCC2)=[N+](CCCCCC(=O)O)c2ccc(S(=O)(=O)O)cc21` [IR800CW], in series [9], the “emission maximum, free dye” value is 789 nm and the “absorbance maximum, free dye” value is given as 774 nm. Further, in [6], the Stokes-shift is 15 nm. In addition, the toxicity entry in series [12] is listed as “non-toxic”.
